Source: US20040023802A1, “Increasing plant yield and/or vigor by seed treatment with a neonicotinoid compound” (Monsanto Technology, L.L.C., priority 2002, published 2004)

What was measured:
Assay type in all cases: in vivo
[1] = tested on: corn hybrids RX670 and RX601 having transgenic events MON853, MON863, MON810; experiment: Field trials of corn yield of transgenic seed at low pest pressure, with and without imidacloprid seed treatment; conditions: 60 gm per 100 kg of seed; all trials; relative absence of insect pressure
Protocol: (§1) Corn hybrids with and without transgenic events expressing insecticidal proteins were evaluated for field efficacy. The hybrids that were evaluated were RX670 and RX601, each as an isoline (having no transgenic events) and each having a transgenic event expressing the Cry3Bb protein having activity against Diabrotica spp. (corn rootworm)—designated as MON853, or a transgenic event expressing the Cry3Bb protein having activity against corn rootworm—designated as MON863, or a combination of MON853 and a transgenic event expressing the Cry1A protein having activity against European corn borer—designated as MON810, or a combination of MON863 and MON810. Accordingly, an isoline and four transgenic forms were tested for each hybrid. Each type of seed was tested with and without seed treatment with 60 gm of imidacloprid per 100 kg of seed, applied in a Niklas seed treater. The isoline seeds were also tested with and without the use of conventional soil-applied insecticides, which were applied as described in Example 3.

[2] = tested on: isoline (non-transgenic) corn hybrids RX670 and RX601; experiment: Field tests of corn yield of isoline hybrids at low pest pressure, with and without imidacloprid seed treatment; conditions: 60 gm per 100 kg of seed; four location/hybrid cases
Protocol: as §1

commercial corn hybrids = experiment: Hybrid seed production (breeding station) field trial: final stand count and plot yield of corn from imidacloprid-treated seed; conditions: for Stand count, Imidacloprid treated / Corn yield, Imidacloprid treated: 0.165 mg/kernel + fungicide; for Stand count, Imidacloprid treated: V5 stage; for Corn yield, Imidacloprid treated: at maturity, 15% moisture; for Corn yield, Difference / Stand count, Difference: imidacloprid treated vs fungicide-only control; for Actual Yield Over Expected: yield increase vs that expected from stand improvement (about 1% per 1,000 plants/ac); for Actual Yield Over 2× of Expected: yield increase vs two-times that predicted from stand improvement
[3] = tested on: corn rootworm; secondary insect pests of corn; experiment: Insect protection of corn by imidacloprid seed treatment at 0.165 mg/kernel (stated as previously shown); conditions: 0.165 mg imidacloprid/kernel
corn hybrids = experiment: Field strip trials of corn yield under different tillage regimes: soil insecticide alone or plus Gaucho seed treatment
Protocol: Seed of three corn hybrids were treated with imidacloprid in the manner described in Example 3. Seed were planted using standard planting equipment in field experiments across the U.S. corn belt. All experiments were conducted as strip trials, under a variety of tillage regimes, and all trials received standard weed control and cultural practices common to commercial corn production. Plot yield was collected using standard mechanical harvesting equipment.
Soil insecticides were applied in the manner described in Example 2. Considerable increase in corn yield was also observed when corn seed treated with imidacloprid were planted in soils treated with soil-applied insecticide. The increase in yield was observed under all tillage conditions and for all the hybrids tested. Table 7 compares the yield from untreated corn seeds and corn seeds treated with imidacloprid when planted on soil treated with soil-applied insecticide. […] Soil-applied insecticides are known to be an effective method for controlling secondary insects, so the increase in corn yield was surprising.
No-Till-Tillage system refers to situations where no tillage methods are applied to the soil prior to or at planting.
Conservation/Minimum tillage refers to reduced tillage practices allowing at least 30% of soil surface to remain covered with crop residue.
Conventional Tillage refers to tillage practices where less than 30% of soil surface is covered with previous crop residue.
Such practices may include moldboard plowing, disking, or multiple field cultivation passes prior to or at planting of crop. Strip and Ridge-Till, although usually grouped in conservation tillage because of beneficial effects on soil and water retention, are grouped in conventional tillage here because the tilled zones in which the crop is planted provide an environment more similar to true conventional tillage.

[4] = hybrid B = DKC46-26, 10 locations
[5] = hybrid D = DKC51-88, 10 locations
[6] = hybrid F = LH244XLH295, 10 locations
[7] = hybrid H = HC33XLH277, 14 locations
[8] = hybrid I = DKC57-38, 14 locations
[9] = vs fungicide-treated control, 12 hybrids

O=[N+]([O-])NC1=NCCN1Cc1ccc(Cl)nc1 [Imidacloprid, imidacloprid]
corn yield of transgenic seed treated with imidacloprid vs isolines and untreated transgenic strains [1]: higher than the isolines, and also higher than the untreated transgenic strains
effect of imidacloprid treatment on yield for isoline corn [2]: increased by imidacloprid treatment in one-half of the cases tested
Stand count, Imidacloprid treated (commercial corn hybrids; hybrid A = DK440, 10 locations): 31920 plts/ac
Corn yield, Imidacloprid treated (commercial corn hybrids; hybrid A = DK440, 10 locations): 163.5 bu/ac
Stand count, Imidacloprid treated (commercial corn hybrids; [4]): 32061 plts/ac
Corn yield, Imidacloprid treated (commercial corn hybrids; [4]): 170.8 bu/ac
Stand count, Imidacloprid treated (commercial corn hybrids; hybrid C = DK493, 10 locations): 31217 plts/ac
Corn yield, Imidacloprid treated (commercial corn hybrids; hybrid C = DK493, 10 locations): 159.6 bu/ac
Stand count, Imidacloprid treated (commercial corn hybrids; [5]): 31828 plts/ac
Corn yield, Imidacloprid treated (commercial corn hybrids; [5]): 169.4 bu/ac
Stand count, Imidacloprid treated (commercial corn hybrids; hybrid E = DK537, 10 locations): 32011 plts/ac
Corn yield, Imidacloprid treated (commercial corn hybrids; hybrid E = DK537, 10 locations): 171.2 bu/ac
Stand count, Imidacloprid treated (commercial corn hybrids; [6]): 30786 plts/ac
Corn yield, Imidacloprid treated (commercial corn hybrids; [6]): 173.1 bu/ac
Stand count, Imidacloprid treated (commercial corn hybrids; hybrid G = DK567, 14 locations): 28766 plts/ac
Corn yield, Imidacloprid treated (commercial corn hybrids; hybrid G = DK567, 14 locations): 167.5 bu/ac
Stand count, Imidacloprid treated (commercial corn hybrids; [7]): 28004 plts/ac
Corn yield, Imidacloprid treated (commercial corn hybrids; [7]): 164.6 bu/ac
Stand count, Imidacloprid treated (commercial corn hybrids; [8]): 28460 plts/ac
Corn yield, Imidacloprid treated (commercial corn hybrids; [8]): 172.3 bu/ac
Stand count, Imidacloprid treated (commercial corn hybrids; hybrid J = DK585, 14 locations): 28273 plts/ac
Corn yield, Imidacloprid treated (commercial corn hybrids; hybrid J = DK585, 14 locations): 179.5 bu/ac
Stand count, Imidacloprid treated (commercial corn hybrids; hybrid K = DK611, 14 locations): 28984 plts/ac
Corn yield, Imidacloprid treated (commercial corn hybrids; hybrid K = DK611, 14 locations): 171.3 bu/ac
Stand count, Imidacloprid treated (commercial corn hybrids; hybrid L = RX708, 14 locations): 28986 plts/ac
Corn yield, Imidacloprid treated (commercial corn hybrids; hybrid L = RX708, 14 locations): 180.7 bu/ac
Corn yield, Difference (commercial corn hybrids; hybrid A = DK440, 10 locations): 2.0 bu/ac
Stand count, Difference (commercial corn hybrids; hybrid A = DK440, 10 locations): 843.8 plts/ac
Corn yield, Difference (commercial corn hybrids; [4]): 4.1 bu/ac
Stand count, Difference (commercial corn hybrids; [4]): 439.0 plts/ac
Corn yield, Difference (commercial corn hybrids; hybrid C = DK493, 10 locations): 5.8 bu/ac
Stand count, Difference (commercial corn hybrids; hybrid C = DK493, 10 locations): 749.5 plts/ac
Corn yield, Difference (commercial corn hybrids; [5]): −0.7 bu/ac
Stand count, Difference (commercial corn hybrids; [5]): 946.8 plts/ac
Corn yield, Difference (commercial corn hybrids; hybrid E = DK537, 10 locations): 1.0 bu/ac
Stand count, Difference (commercial corn hybrids; hybrid E = DK537, 10 locations): 620.0 plts/ac
Corn yield, Difference (commercial corn hybrids; [6]): 4.7 bu/ac
Stand count, Difference (commercial corn hybrids; [6]): 1162.3 plts/ac
Corn yield, Difference (commercial corn hybrids; hybrid G = DK567, 14 locations): 3.5 bu/ac
Stand count, Difference (commercial corn hybrids; hybrid G = DK567, 14 locations): 1189.2 plts/ac
Corn yield, Difference (commercial corn hybrids; [7]): 4.8 bu/ac
Stand count, Difference (commercial corn hybrids; [7]): 39.6 plts/ac
Corn yield, Difference (commercial corn hybrids; [8]): 9.2 bu/ac
Stand count, Difference (commercial corn hybrids; [8]): 1822.2 plts/ac
Corn yield, Difference (commercial corn hybrids; hybrid J = DK585, 14 locations): 3.7 bu/ac
Stand count, Difference (commercial corn hybrids; hybrid J = DK585, 14 locations): 429.3 plts/ac
Corn yield, Difference (commercial corn hybrids; hybrid K = DK611, 14 locations): 0.1 bu/ac
Stand count, Difference (commercial corn hybrids; hybrid K = DK611, 14 locations): 1022.8 plts/ac
Corn yield, Difference (commercial corn hybrids; hybrid L = RX708, 14 locations): 6.9 bu/ac
Stand count, Difference (commercial corn hybrids; hybrid L = RX708, 14 locations): 803.7 plts/ac
increase or decrease in corn yield vs untreated seeds (FIG. 2 by hybrid, FIG. 3 by location) (commercial corn hybrids; twelve hybrids, twenty four locations): consistent and commercially important increases in corn yield
hybrid/seed treatment combinations with yield increase more than expected on the basis of stand improvement alone (commercial corn hybrids; [9]): 9 out of 12
hybrid/seed treatment combinations with yield increase over two-times that predicted on the basis of stand improvement (commercial corn hybrids; [9]): 7 out of 12
Actual Yield Over Expected (commercial corn hybrids; hybrid A = DK440): Yes
Actual Yield Over Expected (commercial corn hybrids; hybrid B = DKC46-26): Yes
Actual Yield Over Expected (commercial corn hybrids; hybrid C = DK493): Yes
Actual Yield Over Expected (commercial corn hybrids; hybrid D = DKC51-88): No
Actual Yield Over Expected (commercial corn hybrids; hybrid E = DK537): No
Actual Yield Over Expected (commercial corn hybrids; hybrid F = LH244XLH295): Yes
Actual Yield Over Expected (commercial corn hybrids; hybrid G = DK567): Yes
Actual Yield Over Expected (commercial corn hybrids; hybrid H = HC33XLH277): Yes
Actual Yield Over Expected (commercial corn hybrids; hybrid I = DKC57-38): Yes
Actual Yield Over Expected (commercial corn hybrids; hybrid J = DK585): Yes
Actual Yield Over Expected (commercial corn hybrids; hybrid K = DK611): No
Actual Yield Over Expected (commercial corn hybrids; hybrid L = RX708): Yes
Actual Yield Over 2× of Expected (commercial corn hybrids; hybrid A = DK440): No
Actual Yield Over 2× of Expected (commercial corn hybrids; hybrid B = DKC46-26): Yes
Actual Yield Over 2× of Expected (commercial corn hybrids; hybrid C = DK493): Yes
Actual Yield Over 2× of Expected (commercial corn hybrids; hybrid D = DKC51-88): No
Actual Yield Over 2× of Expected (commercial corn hybrids; hybrid E = DK537): No
Actual Yield Over 2× of Expected (commercial corn hybrids; hybrid F = LH244XLH295): Yes
Actual Yield Over 2× of Expected (commercial corn hybrids; hybrid G = DK567): No
Actual Yield Over 2× of Expected (commercial corn hybrids; hybrid H = HC33XLH277): Yes
Actual Yield Over 2× of Expected (commercial corn hybrids; hybrid I = DKC57-38): Yes
Actual Yield Over 2× of Expected (commercial corn hybrids; hybrid J = DK585): Yes
Actual Yield Over 2× of Expected (commercial corn hybrids; hybrid K = DK611): No
Actual Yield Over 2× of Expected (commercial corn hybrids; hybrid L = RX708): Yes
protection of corn seedlings against stand reducing and growth limiting secondary insect pests [3]: effective
reduction of root injury by corn rootworm ([3]; locations with economically damaging levels of corn rootworm): not significantly reduce root injury
increase in corn yield (corn hybrids; conservation/minimum tillage): 1.6%
increase in corn yield (corn hybrids; convention tillage): 1.7%
increase in corn yield (corn hybrids; no-till cultivation): 6.3%
corn yield vs seeds without imidacloprid treatment (corn hybrids; planted on soil treated with soil-applied insecticide, all tillage conditions and hybrids): considerably higher yield
